The target in this assay is T1, TGF-beta receptor type-1 (Homo sapiens, UniProt P36897).
T1 sequence (P36897 whole entry): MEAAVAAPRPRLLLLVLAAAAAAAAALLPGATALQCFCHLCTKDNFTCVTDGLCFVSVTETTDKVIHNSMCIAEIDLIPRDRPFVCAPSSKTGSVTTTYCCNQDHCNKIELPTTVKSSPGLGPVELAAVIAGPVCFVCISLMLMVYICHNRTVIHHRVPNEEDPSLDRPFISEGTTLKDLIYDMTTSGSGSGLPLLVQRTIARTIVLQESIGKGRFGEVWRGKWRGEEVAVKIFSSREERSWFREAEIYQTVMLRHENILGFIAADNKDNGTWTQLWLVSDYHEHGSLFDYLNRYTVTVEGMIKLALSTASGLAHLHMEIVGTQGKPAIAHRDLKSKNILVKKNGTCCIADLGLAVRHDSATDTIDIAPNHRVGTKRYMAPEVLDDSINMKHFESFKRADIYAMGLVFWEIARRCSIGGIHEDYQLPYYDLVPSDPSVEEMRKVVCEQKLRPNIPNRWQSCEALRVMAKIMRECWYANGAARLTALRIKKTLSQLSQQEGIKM
Put plainly: In Vitro Enzyme Assay. As for the experimental part:
Human TGFβl R-1 inhibition experiments were carried out in a white 384-microplate low flange (Corning 3572) with ADP-Glo kinase Assay Kit (Promega V9101) and TGβR-1 Kinase Enzyme System (Promega V4092). […] The reaction mixture was incubated in gentle shaking for 120 min at RT, after incubation of 10 μL of ADP-Glo Reagent was added and incubated in gentle shaking for 40 min at RT. 20 μL of Kinase Detection Reagent was added and plate was incubated in gentle shaking for 30 min at RT. Luminiscence (1000 ms) was measured in Perkin Elmer EnSpire Multimode plate reader.

For the molecule `O=C(Cn1cc(-c2ccnc3ccccc23)c(-c2ccccn2)n1)NCC1=CC(Cl)CC=C1` (centres undefined) [US12297186, Example 12], the IC50 result was “in the range around 450 nM”.

As for `O=C(Cn1cc(-c2ccnc3ccccc23)c(-c2ccccn2)n1)NCC1=CC(F)CC=C1` (centres undefined) [US12297186, Example 11], the IC50 result is “in the range around 450 nM”.

In the case of `CC1C=C(CNC(=O)Cn2cc(-c3ccnc4ccccc34)c(-c3ccccn3)n2)C=CC1` (centres undefined) [US12297186, Example 10], the IC50 result is “in the range around 450 nM”.

On to `N#CC1C=C(CNC(=O)Cn2cc(-c3ccnc4ccccc34)c(-c3ccccn3)n2)C=CC1` (centres undefined) [US12297186, Example 13], for which the IC50 entry is “in the range around 450 nM”.

By IC50 is commonly meant the midpoint of a concentration-inhibition curve.

The record behind these values is BindingDB's records for patent US12297186 (Agomab Spain, S.L.U., 2025).
